Measured values as given in PubChem BioAssay (NCI).
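1) Cells in 96-well plates. 2) Compound, 48 h, 5 concentrations. 3) Linear interpolation between surrounding doses. 4) Unreached endpoint = highest concentration. TGI denotes the concentration required for complete inhibition of growth.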

How the values were obtained:
Test in all cases: NCI-60 cell line screen, 48 h
MALME-3M melanoma = system: MALME-3M melanoma
HOP-92 NSCLC = system: HOP-92 NSCLC
NCI-H23 lung = system: NCI-H23 lung
COLO 205 colon = system: COLO 205 colon
OVCAR-8 ovarian = system: OVCAR-8 ovarian
ACHN renal = system: ACHN renal
M14 melanoma = system: M14 melanoma
HS 578T breast = system: HS 578T breast
OVCAR-4 ovarian = system: OVCAR-4 ovarian
HOP-62 NSCLC = system: HOP-62 NSCLC
CAKI-1 renal = system: CAKI-1 renal
A549 NSCLC = system: A549 NSCLC
SK-MEL-5 melanoma = system: SK-MEL-5 melanoma
MDA-N = system: MDA-N
HT29 colon = system: HT29 colon
SW-620 colon = system: SW-620 colon
RPMI-8226 leukemia = system: RPMI-8226 leukemia
U251 CNS = system: U251 CNS
HCT-116 colon = system: HCT-116 colon
BT-549 breast = system: BT-549 breast
SF-268 CNS = system: SF-268 CNS
SF-295 CNS = system: SF-295 CNS
PC-3 prostate = system: PC-3 prostate
UACC-62 melanoma = system: UACC-62 melanoma
EKVX NSCLC = system: EKVX NSCLC
SK-MEL-2 melanoma = system: SK-MEL-2 melanoma
SK-OV-3 ovarian = system: SK-OV-3 ovarian
K-562 leukemia = system: K-562 leukemia
DU-145 prostate = system: DU-145 prostate
NCI-H522 lung = system: NCI-H522 lung
NCI/ADR-RES ovarian = system: NCI/ADR-RES ovarian
MDA-MB-435 = system: MDA-MB-435
SN12C renal = system: SN12C renal
SNB-75 CNS = system: SNB-75 CNS
IGROV1 ovarian = system: IGROV1 ovarian
LOX IMVI melanoma = system: LOX IMVI melanoma
TK-10 renal = system: TK-10 renal
UO-31 renal = system: UO-31 renal
NCI-H226 lung = system: NCI-H226 lung
SNB-19 CNS = system: SNB-19 CNS
KM12 colon = system: KM12 colon
UACC-257 melanoma = system: UACC-257 melanoma
HCT-15 colon = system: HCT-15 colon
SK-MEL-28 melanoma = system: SK-MEL-28 melanoma
MDA-MB-231 breast = system: MDA-MB-231 breast
MOLT-4 leukemia = system: MOLT-4 leukemia
T-47D breast = system: T-47D breast
SR leukemia = system: SR leukemia
A498 renal = system: A498 renal
786-0 renal = system: 786-0 renal
CCRF-CEM leukemia = system: CCRF-CEM leukemia
OVCAR-5 ovarian = system: OVCAR-5 ovarian
RXF 393 renal = system: RXF 393 renal
OVCAR-3 ovarian = system: OVCAR-3 ovarian

Measured: TGI

CC(C)(C)/C(O)=C\c1nc2ccc(C(F)(F)F)cc2[nH]c1=O
> 100 µM: MALME-3M melanoma | HOP-92 NSCLC | NCI-H23 lung | COLO 205 colon | OVCAR-8 ovarian | ACHN renal | M14 melanoma | HS 578T breast | OVCAR-4 ovarian | HOP-62 NSCLC | CAKI-1 renal | A549 NSCLC | SK-MEL-5 melanoma | MDA-N | HT29 colon | SW-620 colon | RPMI-8226 leukemia | U251 CNS | HCT-116 colon | BT-549 breast | SF-268 CNS | SF-295 CNS | PC-3 prostate | UACC-62 melanoma | EKVX NSCLC | SK-MEL-2 melanoma | SK-OV-3 ovarian | K-562 leukemia | DU-145 prostate | NCI-H522 lung | NCI/ADR-RES ovarian | MDA-MB-435 | SN12C renal | SNB-75 CNS | IGROV1 ovarian | LOX IMVI melanoma | TK-10 renal | UO-31 renal | NCI-H226 lung | SNB-19 CNS | KM12 colon | UACC-257 melanoma | HCT-15 colon | SK-MEL-28 melanoma | MDA-MB-231 breast | MOLT-4 leukemia | T-47D breast | SR leukemia | A498 renal | 786-0 renal | CCRF-CEM leukemia | OVCAR-5 ovarian | RXF 393 renal | OVCAR-3 ovarian
